Our source for the IC50 values is patent publication US7612086B2, “JNK inhibitors” (Eisai R & D Management Co. Ltd., priority 2003, dated 2009).

A word on the IC50: it is the concentration that inhibits the measured activity by half.

Some results are limits rather than exact numbers.

The target of this assay is JNK3 kinase (Homo sapiens, UniProt P53779). The assay can be described thus: JNK3 SPA assay (phosphorylation of GST-c-Jun). Conditions: 3.33 μM ATP, [γ-33P] ATP, GST-c-Jun substrate, 30 minutes at room temperature. In kind it is biochemical. The method, then:
JNK1, JNK2, JNK3—SPA Assay
• 1. Compound is dissolved in DMSO to a convenient concentration and this is diluted in 10% DMSO to a five times concentrate of the desired starting concentration (frequently 1:100). • 2. 10 μl of 500 mM EDTA is added to alternative wells of the Opti-plate row, which will receive kinase reaction plus DMSO. This creates the negative control. • 3. For the JNK2 and JNK3 assay, compounds are prepared in six 2-fold dilutions with water and each concentration is tested in duplicate. For the JNK1 assay compounds are prepared in four 5-fold dilutions with water which are tested in triplicate. Controls are treated identically. • 4. 20 μl per well of each compound concentration is transferred to an Opti-plate, in duplicate. • 5. 30 μl (JNK2/3 SPA) or 50 μl (JNK1 SPA) of substrate solution (25 mM HEPES pH 7.5, 10 mM magnesium acetate with 3.33 μM ATP (JNK2/3) or 2 μM ATP (JNK1), approximately 7.5 kBq [γ-^33P] ATP, GST-c-Jun, in water) is added to each well. • 6. 50 μl (JNK2/3 SPA) or 30 μl (JNK1 SPA) of kinase solution (JNK in 25 mM HEPES pH 7.5, 10 mM Mg Acetate) is added to each well.
• 7. The plate is incubated for 30 minutes at room temperature. • 8. 100 μl of bead/stop solution is added to each well (5 mg/ml glutathione-PVT-SPA beads, 40 mM ATP in PBS). • 9. Plates are sealed and incubated for 30 minutes at room temperature, centrifuged for 10 minutes at 2500 g and counted. • 10. The IC50 values are calculated as the concentration of the compound being tested at which the phosphorylation of c-Jun is decreased to 50% of the control value.

Chain of JNK3 kinase (P53779 whole entry): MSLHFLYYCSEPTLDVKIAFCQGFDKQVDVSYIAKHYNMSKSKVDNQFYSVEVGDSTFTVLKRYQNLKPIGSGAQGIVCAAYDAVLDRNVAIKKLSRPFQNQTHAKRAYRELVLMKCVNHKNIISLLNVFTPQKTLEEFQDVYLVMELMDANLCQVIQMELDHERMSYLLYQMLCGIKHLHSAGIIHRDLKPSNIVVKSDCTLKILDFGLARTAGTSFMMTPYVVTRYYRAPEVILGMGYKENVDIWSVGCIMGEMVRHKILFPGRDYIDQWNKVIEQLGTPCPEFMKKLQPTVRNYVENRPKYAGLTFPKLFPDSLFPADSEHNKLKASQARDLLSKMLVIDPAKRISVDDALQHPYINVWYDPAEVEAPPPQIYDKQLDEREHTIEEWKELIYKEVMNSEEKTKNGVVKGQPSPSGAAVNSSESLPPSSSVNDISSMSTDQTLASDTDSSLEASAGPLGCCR

The molecule `CCCNC(=O)C#Cc1c[nH]c2ncc(-c3ccccc3Oc3ccccc3)cc12` yielded an IC50 below 500 nM.
With `C#Cc1c[nH]c2ncc(-c3ccc(N(C)C)cc3)cc12` the figure was below 500 nM; with `CN(C)c1ccc(-c2cnc3[nH]cc(C#N)c3c2)cc1`, below 500 nM; with `N#Cc1c[nH]c2ncc(-c3ccccc3F)cc12`, below 500 nM.
